According to patent US5492919A, “5-HT4 receptor antagonists” (SmithKline Beecham p.l.c., priority 1991, dated 1996):

How the values were obtained:
[1] = biological target: T1, 5-HT4 receptor (Cavia porcellus, UniProt O70528); assay: 5-HT4 receptor antagonist activity: guinea pig colon (longitudinal muscle-myenteric plexus preparations), reduction of 5-HT-evoked contractions; format: cell-based; conditions: for activity in guinea pig colon, in words: relative to compounds generally active at pIC50 = 6 or more
T1 construct: Longitudinal muscle-myenteric plexus preparations, approximately 3 cm long, are obtained from the distal colon region; from tissue; host or cells: guinea pig distal colon, longitudinal muscle-myenteric plexus preparation
Procedure: (§1) 5-HT4 RECEPTOR ANTAGONIST ACTIVITY
Male guinea-pigs, weighing 250-400 g are used. Longitudinal muscle-myenteric plexus preparations, approximately 3 cm long, are obtained from the distal colon region. These are suspended under a 0.5 g load in isolated tissue baths containing Krebs solution bubbled with 5% CO2 in O2 and maintained at 37° C. In all experiments, the Krebs solution also contains methiothepin 10^-7 M and granisetron 10^-6 M to block effects at 5-HT1, 5-HT2 and 5-HT3 receptors.
After construction of a simple concentration-response curve with 5-HT, using 30s contact times and a 15rain dosing cycle, a concentration of 5-HT is selected so as to obtain a contraction of the muscle approximately 40-70% maximum(10^-9 M approx). The tissue is then alternately dosed every 15 min with this concentration of 5-HT and then with an approximately equi-effective concentration of the nicotine receptor stimulant, dimethylphenylpiperazinium (DMPP). After obtaining consistent responses to both 5-HT and DMPP, increasing concentrations of a putative 5-HT4 receptor antagonist are then added to the bathing solution. The effects of this compound are then determined as a percentage reduction of the contractions evoked by 5-HT or by DMPP. […] A compound which reduces the response to 5-HT but not to DMPP is believed to act as a 5-HT4 receptor antagonist.

[2] = biological target: T2, 5-HT4 receptor (Sus scrofa, UniProt Q6Q253); assay: 5-HT4 receptor antagonist activity: piglet atria, piglet spontaneous beating screen; format: cell-based
T2 construct: functional antagonism (pKB)
Procedure: as §1
Compounds were tested in the piglet spontaneous beating screen (Naunyn-Schmiedeberg's Arch. Pharmacol 342, 619-622). pKB (-log10 KB) value for the compound of Example 21 of EP-A-328200 was 7.6.

T1 sequence (O70528 whole entry): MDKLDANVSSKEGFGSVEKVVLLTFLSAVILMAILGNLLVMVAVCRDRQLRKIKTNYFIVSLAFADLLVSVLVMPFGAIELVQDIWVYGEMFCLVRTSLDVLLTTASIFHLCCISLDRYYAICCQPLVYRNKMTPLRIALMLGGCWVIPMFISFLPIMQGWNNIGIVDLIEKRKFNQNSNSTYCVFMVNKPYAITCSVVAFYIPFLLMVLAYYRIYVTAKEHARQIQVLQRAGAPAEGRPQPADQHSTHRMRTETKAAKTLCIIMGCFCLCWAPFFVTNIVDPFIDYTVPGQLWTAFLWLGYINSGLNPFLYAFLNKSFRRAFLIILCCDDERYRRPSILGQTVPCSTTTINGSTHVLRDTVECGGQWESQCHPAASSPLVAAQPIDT
T2 sequence (Q6Q253 1-402): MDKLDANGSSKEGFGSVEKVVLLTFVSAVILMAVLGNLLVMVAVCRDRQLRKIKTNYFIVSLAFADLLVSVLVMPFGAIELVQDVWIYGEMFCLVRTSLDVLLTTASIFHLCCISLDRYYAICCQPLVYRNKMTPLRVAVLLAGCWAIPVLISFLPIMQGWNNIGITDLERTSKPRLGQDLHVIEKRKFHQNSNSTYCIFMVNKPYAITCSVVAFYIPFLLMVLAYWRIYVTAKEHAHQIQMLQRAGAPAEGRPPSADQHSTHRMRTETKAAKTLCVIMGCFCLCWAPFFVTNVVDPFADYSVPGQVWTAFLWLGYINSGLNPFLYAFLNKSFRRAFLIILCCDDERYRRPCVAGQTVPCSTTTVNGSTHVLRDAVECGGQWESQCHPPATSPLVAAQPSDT

SMILES	activity in guinea pig colon, in words [1]	IC50 ([1]; 5-HT approx 10^-9 M, Krebs solution with methiothepin 10^-7 M and granisetron 10^-6 M, 37° C, read-out: pIC50 (-log concentration of antagonist which reduces the contraction by 50%) (converted)) [nM]	pKB (-log10 KB) [2]
CCCCN1CCC(Cc2nc(-c3cn(C)c4ccccc34)no2)CC1 [Example E3]	particularly good activity		
CCCCN(C)CCCc1nc(-c2cn(C)c3ccccc23)no1 [Example E1, 5-[3-(N-Methylbutylamino)propyl]-3-[1-methyl-1H-indol-3-yl]-1,2,4-oxadiazole]	particularly good activity		
Cn1cc(-c2noc(CCN3CCCCC3)n2)c2ccccc21 [Example 21 of EP-A-328200, 1-methyl-3-[5-(2-(1-piperidyl)ethyl)-1,2,4-oxadiazol-3-yl]indole]		50.1	7.6
